Common to all, as to type: physicochemical
A short description of series [1]: Solubility comparison, saturated solutions in SGF, FeSSIF, FaSSIF and water, by HPLC. Conditions: FaSSIF, FeSSIF and H2O after 1 hour, 2 hours and 24 hours.
The nature of series [2]: Stability assessment on storage (XRPD and purity). On the procedure:
The crystalline Form A of the compound of formula (I) of the present disclosure was stored under 25° C./60% RH and 40° C./75% RH for 90 days. XRPD and purity of the samples were collected after storing for 15 days, 30 days and 90 days. […] The XRPD results of crystalline Form A before and after storing under 25° C./60% RH and 40° C./75% RH for 90 days are depicted in FIG. 7 (FIG. 7: the top, middle and bottom are initial crystalline Form A, crystalline Form A after storing at 25° C./60% RH and 40° C./75% RH for 90 days respectively).

The nature of series [3]: Solubility comparison, saturated solutions in SGF, FeSSIF, FaSSIF and water, by HPLC. Particulars: for Solubility FeSSIF: pH5.0 FeSSIF; for Solubility FaSSIF: pH6.5 FaSSIF. Here is the method: Crystalline Form A of the present disclosure and Form I disclosed in CN101910156A are prepared into saturated solution in SGF (Simulated gastric fluids), pH5.0 FeSSIF (Fed state simulated intestinal fluids), pH6.5 FaSSIF (Fasted state simulated intestinal fluids) and water. Concentrations in the saturation solutions were tested after 1 hour, 4 hours and 24 hours by HPLC.

Series [4] is described as follows: Hygroscopicity assessment by dynamic vapor sorption (DVS). Particulars: for Weight Gain under 80% Relative Humidity: DVS. On the procedure: Dynamic vapor sorption (DVS) data in the present disclosure was acquired by a SMS (Surface Measurement Systems Ltd.) DVS Intrinsic. About 10 mg of crystalline Form A of present disclosure was used for DVS test. The parameters of the dynamic vapor sorption (DVS) method of the present disclosure were as follows:
Gas and flow rate: N2, 200 mL/min
RH range: 0% RH to 95% RH
Maximum equilibrate time: 180 min
Humidity gradient: 10% (0% RH-90% RH), 5% (90% RH-95% RH).
About 12.2 mg of crystalline Form A of the present disclosure was used for hygroscopicity testing using dynamic vapor sorption (DVS), crystalline Form A underwent a 0-95%-0 cycle of the relative humidity (RH) change. 4. The XRPD patterns of crystalline Form A before and after hygroscopicity assessment are depicted in FIG. 6. The pattern above is before DVS and the below one is after DVS.
About hygroscopicity characterization description and definition of hygroscopicity (Chinese Pharmacopoeia 2010 edition appendix XIV Drug hygroscopic test guidelines, test at 25° C.+/−1° C., 80% Relative Humidity) • deliquescent: sufficient water is absorbed to form a liquid. • very hygroscopic: increase in mass is equal to or greater than 15%. • hygroscopic: increase in mass is less than 15% and equal to or greater than 2%. • slightly hygroscopic: increase in mass is less than 2% and equal to or greater than 0.2%. • no or almost no hygroscopic: increase in mass is less than 0.2%.

SMILES strings stand for the structures. Values after ≈ are worked out from the molar mass of the structure shown.

Consider `Cc1ccc(NC(=O)C2(c3ccc4c(c3)OC(F)(F)O4)CC2)nc1-c1cccc(C(=O)O)c1` [Form A, 3-(6-(1-(2,2-difluorobenzo [d] [1,3]dioxol-5-yl)cyclopropanecarboxamido)-3-methylpyridin-2-yl) benzoic acid], for which the “Solubility compared with Form I disclosed in CN101910156A” value in series [1] is listed as “higher”. Besides, the “Stability (Purity %) 25° C./60% RH” value is on record as 99.94% in series [2] (25° C./60% RH, 15 days); 99.90% in series [2] (25° C./60% RH, 30 days); 99.93% in series [2] (25° C./60% RH, 90 days); 99.82% in series [2] (25° C./60% RH, Initial). In addition, the “Stability under long-term stability condition” value in series [2] (25° C./60% RH, 90 days, XRPD and purity) is reported as “stable”. The “Stability (Purity %) 40° C./75% RH” value worked out at 99.94% in series [2] (40° C./75% RH, 15 days); 99.94% in series [2] (40° C./75% RH, 30 days); 99.94% in series [2] (40° C./75% RH, 90 days); 99.82% in series [2] (40° C./75% RH, Initial). Besides, in series [2] (40° C./75% RH, 90 days, XRPD and purity), the “Stability under accelerated stability condition” value was “stable”. Also, the “Solubility H2O” value was found to be 8.6 µg/mL (≈ 19 µM) in series [3] (H2O, 1 hour) and 16 µg/mL (≈ 35.4 µM) in series [3] (H2O, 4 hours). Moreover, the “Solubility SGF” value in series [3] (1 hour) was determined as 0.9 µg/mL (≈ 1.99 µM); in series [3] (4 hours), 1.9 µg/mL (≈ 4.2 µM); in series [3] (24 hours), 2 µg/mL (≈ 4.42 µM). In addition, the “Solubility FeSSIF” value in series [3] (1 hour) amounted to 17 µg/mL (≈ 37.6 µM); in series [3] (4 hours), 18 µg/mL (≈ 39.8 µM); in series [3] (24 hours), 20 µg/mL (≈ 44.2 µM). Further, the results for the “Solubility FaSSIF” value in series [3] (1 hour), in series [3] (4 hours) and in series [3] (24 hours) were 8.2 µg/mL (≈ 18.1 µM), 11 µg/mL (≈ 24.3 µM) and 9.5 µg/mL (≈ 21 µM), respectively. Moreover, in series [3] (water, thermodynamic from solid, H2O, 24 hours), the solubility at 24 h was found to be 25 µg/mL (≈ 55.3 µM). In series [4] (0-95%-0 RH cycle), the “Crystalline form after DVS test (XRPD before and after)” value is “didn't change”. The Hygroscopicity class entry in series [4] (Chinese Pharmacopoeia 2010 criteria, 25° C., 80% RH) is “non-hygroscopic or almost non-hygroscopic”. Moreover, the “Weight Gain under 80% Relative Humidity” value in series [4] (25° C., 80% RH, listed as Crystalline Form A of the compound of formula (I)) is reported as 0.10%; in series [4] (25° C., 80% RH, listed as crystalline Form A of the compound of formula (I)) it was 0.10%.
Regarding `Cc1ccc(NC(=O)C2(c3ccc4c(c3)OC(F)(F)O4)CC2)nc1-c1cccc(C(=O)O)c1` [Form I, 3-(6-(1-(2,2-difluorobenzo [d] [1,3]dioxol-5-yl)cyclopropanecarboxamido)-3-methylpyridin-2-yl) benzoic acid, reference compound], the “Solubility H2O” value in series [3] (H2O, 1 hour) stood at 2.2 µg/mL (≈ 4.86 µM); in series [3] (H2O, 4 hours) it was 6.7 µg/mL (≈ 14.8 µM); in series [3] (H2O, 24 hours) it was 16 µg/mL (≈ 35.4 µM). The figures for the “Solubility SGF” value in series [3] (1 hour), in series [3] (4 hours) and in series [3] (24 hours) were 0.4 µg/mL (≈ 0.884 µM), below 0.22 µg/mL and below 0.21 µg/mL, respectively. The “Solubility FeSSIF” value in series [3] (1 hour) was 5.5 µg/mL (≈ 12.2 µM); in series [3] (4 hours) it was 5.9 µg/mL (≈ 13 µM); in series [3] (24 hours), 5.5 µg/mL (≈ 12.2 µM). Besides, the “Solubility FaSSIF” value was determined as 2.3 µg/mL (≈ 5.08 µM) in series [3] (1 hour), 1.5 µg/mL (≈ 3.32 µM) in series [3] (4 hours) and 0.9 µg/mL (≈ 1.99 µM) in series [3] (24 hours).
